This is an account of results in ChEMBL document CHEMBL4673236, “Synthesis and biological effect of lysosome-targeting fluorescent anion transporters with enhanced anionophoric activity” (Bioorg Med Chem Lett, 2020).

Data set [1] is described as follows: Induction of lysosome alkalization in human HeLa cells assessed as increase in lysosomal pH incubated for 4 hrs by LysoSensor Green […] staining based confocal microscopic analysis. It is filed as subcellular. As to conditions: dose 1.5-5 µM.
The nature of data set [2]: Aniono-phoric activity in egg-yolk L-aphosphatidylcholine vesicle assessed as increase in efflux of chloride ion by pH discharge experiment.
Data set [3] in a line: Induction of lysosome alkalization in human HeLa cells assessed as pixel intensity ratio of red fluorescence to green fluorescence at 5 uM incubated for 4 hrs by acridine orange staining based confocal microscopic analysis relative to control. It is filed as subcellular.
Another data set concerns HeLa. Briefly: Induction of lysosomal alkalization in human HeLa cells assessed as reduction in Cathepsin B activity at 5 uM using MR-(RR2) as substrate preincubated for 5 hrs followed by substrate addition and measured after 1 hr by confocal microscopic analysis. As to conditions: time 6.0 hrs. It is filed as functional, cell-based.
Data set [4] can be described thus: Aniono-phoric activity in egg-yolk L-aphosphatidylcholine vesicle assessed as increase in efflux of chloride ion at 0.5 mol% by electrode technique.
Data set [5] can be described thus: Drug localization in lysosome of human HeLa cells at 20 uM incubated for 6 hrs by confocal microscopic analysis. The class given is ADME, subcellular.
The nature of data set [6]: Induction of lysosome alkalization in human HeLa cells incubated for 4 hrs by acridine orange staining based confocal microscopic analysis. It is filed as subcellular. The conditions noted are these: dose 1.5-5 µM.

The structures appear in SMILES notation. Calls of active or inactive are those of the source. The rule behind the calls is not given here.

Regarding `O=c1cc(CN2CCOCC2)c2ccc(Nc3c(Nc4ccc(C(F)(F)F)cc4)c(=O)c3=O)cc2o1`, the Activity entry in data set [1] and in data set [6] was “Dose-dependent effect” throughout. The EC50 in data set [2] is 0.11 mol%. The Ratio in data set [3] amounted to 0.52. In addition, the result in the data set on HeLa was Active. Also, the result in data set [4] was inactive. For the same compound, the Drug uptake entry in data set [5] is given as “Active”.
`Cc1cc(=O)oc2cc(Nc3c(Nc4ccc(N5CCOCC5)cc4)c(=O)c3=O)ccc12`: the Activity entry in data set [1] and in data set [6] was “Dose-dependent effect” each time. Further, the EC50 result in data set [2] is “Nd(Insoluble)”. In addition, in data set [3], the Ratio is on record as 0.69. In addition, in the data set on HeLa, the outcome was Active. Moreover, in data set [4], the outcome was inactive.
In the case of `O=c1cc(CN2CCOCC2)c2ccc(Nc3c(Nc4cc(C(F)(F)F)cc(C(F)(F)F)c4)c(=O)c3=O)cc2o1`, the Activity entry in data set [1] and in data set [6] was “Dose-dependent effect” in each case. Further, in data set [2], the EC50 came out at 9.09 mol%. The Ratio in data set [3] is given as 0.08. For the same compound, the outcome (with HeLa; in data set [4]) was Active. The Drug uptake result in data set [5] is “Active”.
Take `Cc1cc(=O)oc2cc(Nc3c(Nc4ccccc4)c(=O)c3=O)ccc12`: the EC50 result in data set [2] is “Nd(Insoluble)”. The result in data set [4] was inactive. Moreover, the Drug uptake result in data set [5] is “Not Active”.
